In paper PMC3934385, “Componential Profile and Amylase Inhibiting Activity of Phenolic Compounds from Calendula officinalis L. Leaves” (The Scientific World Journal, 2014):
In brackets after ≈: the same amount, converted by molar mass.

What follows are compounds tested against T1, amylase from Aspergillus niger (assay: starch hydrolysis, glucose oxidase/peroxidase coupled, A510 microplate). Settings: 2% starch, phosphate pH 5.0, preincubation 20 min 45°C, then 30 min 50°C.
T1 construct: gene aamA
Type: biochemical
Description: starch hydrolysis, glucose oxidase/peroxidase coupled, A510 microplate on amylase from Aspergillus niger
In the case of C[C@@H]1O[C@@H](OC[C@H]2O[C@@H](Oc3c(-c4ccc(O)c(O)c4)oc4cc(O)cc(O)c4c3=O)[C@H](O)[C@@H](O)[C@@H]2O)[C@H](O)[C@H](O)[C@H]1O [compound 20, rutin], the “IC50” value is reported as 89.85 µg/mL (≈ 147 µM). In the case of O=c1ccc2ccc(O)cc2o1 [compound 12, umbelliferone], the “IC50” value is reported as over 100 µg/mL. For COc1cc(-c2oc3cc(O)cc(O)c3c(=O)c2O[C@@H]2O[C@H](COC(C)=O)[C@@H](O)[C@H](O)[C@H]2O)ccc1O [compound 23, isorhamnetin-3-O-(6′′-acetyl)-β-D-glucopyranoside], the “IC50 (μg mL^-1)” value was ~ 100 μg mL^−1. For O=c1ccc2cc(O[C@@H]3O[C@H](CO)[C@@H](O)[C@H](O)[C@H]3O)c(O)cc2o1 [compound 14, aesculin], the “IC50” value was over 100 µg/mL. With COc1cc(C(=O)O[C@@H]2O[C@H](CO)[C@@H](O)[C@H](O)[C@H]2O)ccc1O [compound 5, 1′-O-vanilloyl-β-D-glucopyranose] the “IC50” value was 73.69 µg/mL (≈ 223 µM). For COc1cc(-c2oc3cc(O)cc(O)c3c(=O)c2O[C@@H]2O[C@H](CO)[C@@H](O)[C@H](O)[C@H]2O)ccc1O [compound 22, isorhamnetin-3-O-β-D-glucopyranoside], the “IC50” value was 23.41 µg/mL (≈ 48.9 µM). In the case of O=c1ccc2cc(O)c(O[C@@H]3O[C@H](CO)[C@@H](O)[C@H](O)[C@H]3O)cc2o1 [compound 15, cichoriin], the “IC50” value is reported as over 100 µg/mL. For O=c1ccc2cc(O)c(O)cc2o1 [compound 13, aesculetin], the “IC50” value was 1.02 µg/mL (≈ 5.73 µM). For COc1cc(-c2oc3cc(O)cc(O)c3c(=O)c2O[C@@H]2O[C@H](CO[C@@H]3O[C@@H](C)[C@H](O)[C@@H](O)[C@H]3O)[C@@H](O)[C@H](O)[C@H]2O)ccc1O [compound 24, narcissin], the “IC50” value was over 100 µg/mL. O=C(/C=C/c1ccc(O)c(O)c1)O[C@@H]1C[C@](OC(=O)/C=C/c2ccc(O)c(O)c2)(C(=O)O)C[C@@H](O)[C@H]1O [compound 10, 1,5-di-O-caffeoylquinic acid] was tested, and the “IC50” value was 37.15 µg/mL (≈ 71.9 µM). For O=C(O[C@@H]1O[C@H](CO)[C@@H](O)[C@H](O)[C@H]1O)c1ccc(O)cc1 [compound 1, 1′-O-p-hydroxybenzoyl-β-D-glucopyranose], the “IC50” value was over 100 µg/mL. In the case of O=C(OC[C@H]1OC(O)[C@H](O)[C@@H](O)[C@@H]1O)c1ccc(O)cc1 (stereo partly drawn) [compound 2, 6′-O-p-hydroxybenzoyl-β-D-glucopyranose], the “IC50” value is reported as over 100 µg/mL. With COc1cc(-c2oc3cc(O)cc(O)c3c(=O)c2O)ccc1O [compound 21, isorhamnetin] the “IC50” value was 2.64 µg/mL (≈ 8.35 µM). With COc1cc(C(=O)OC[C@H]2OC(O)[C@H](O)[C@@H](O)[C@@H]2O)ccc1O (mixture of isomers) [compound 6, 6′-O-vanilloyl-β-D-glucopyranose] the “IC50” value was 79.18 µg/mL. For O=C(OC[C@H]1OC(O)[C@H](O)[C@@H](O)[C@@H]1O)c1ccc(O)c(O)c1 (stereo partly drawn) [compound 4, 6′-O-protocatechuoyl-β-D-glucopyranose], the “IC50” value was 66.52 µg/mL (≈ 210 µM). For COc1cc2ccc(=O)oc2cc1O [compound 16, scopoletin], the “IC50 (μg mL^-1)” value was ~ 100 μg mL^−1. O=C(O)/C=C/c1ccc(O)c(O)c1 [compound 7, caffeic acid] was tested, and the “IC50” value was 2.53 µg/mL (≈ 14 µM). For C[C@H]1O[C@H](O[C@H]2[C@H](O)[C@@H](O)[C@@H](O[C@H]3[C@H](O)[C@@H](O)C(O)O[C@@H]3CO)O[C@@H]2CO)[C@H](O)[C@@H](O)[C@@H]1N[C@H]1C=C(CO)[C@@H](O)[C@H](O)[C@H]1O (stereo partly shown) [Acarbose, reference compound], the “IC50” value was 9.54 ± 0.32 µg/mL (≈ 14.8 µM). With O=c1c(O[C@@H]2O[C@H](CO)[C@@H](O)[C@H](O)[C@H]2O)c(-c2ccc(O)c(O)c2)oc2cc(O)cc(O)c12 [compound 18, isoquercitrin] the “IC50” value was 15.45 µg/mL (≈ 33.3 µM). For O=c1c(O)c(-c2ccc(O)c(O)c2)oc2cc(O)cc(O)c12 [compound 17, quercetin], the “IC50” value was 1.79 µg/mL (≈ 5.92 µM). COc1cc(-c2oc3cc(O)cc(O)c3c(=O)c2O[C@@H]2O[C@H](CO[C@@H]3O[C@@H](C)[C@H](O)[C@@H](O)[C@H]3O)[C@@H](O)[C@H](O)[C@H]2O[C@@H]2O[C@@H](C)[C@H](O)[C@@H](O)[C@H]2O)ccc1O [compound 25, thyphaneoside] was tested, and the “IC50” value was over 100 µg/mL. CC(=O)OC[C@H]1O[C@@H](Oc2c(-c3ccc(O)c(O)c3)oc3cc(O)cc(O)c3c2=O)[C@H](O)[C@@H](O)[C@@H]1O [compound 19, quercetin-3-O-(6′′-acetyl)-β-D-glucopyranoside] was tested, and the “IC50” value was 32.70 µg/mL (≈ 64.6 µM). With O=C(/C=C/c1ccc(O)c(O)c1)O[C@@H]1[C@H](O)C[C@@](O)(C(=O)O)C[C@H]1OC(=O)/C=C/c1ccc(O)c(O)c1 [compound 11, 4,5-di-O-caffeoylquinic acid] the “IC50” value was 26.65 µg/mL (≈ 51.6 µM). With O=C(O[C@@H]1O[C@H](CO)[C@@H](O)[C@H](O)[C@H]1O)c1ccc(O)c(O)c1 [compound 3, 1′-O-protocatechuoyl-β-D-glucopyranose] the “IC50” value was 62.46 µg/mL (≈ 197 µM). With O=C(/C=C/c1ccc(O)c(O)c1)O[C@@H]1C[C@](O)(C(=O)O)C[C@@H](OC(=O)/C=C/c2ccc(O)c(O)c2)[C@H]1O [compound 9, 3,5-di-O-caffeoylquinic acid] the “IC50” value was 25.63 µg/mL (≈ 49.6 µM).
